Data as given in PMC8617031, “Development of a BCL-xL and BCL-2 dual degrader with improved anti-leukemic activity,” (Nature Communications, 2021).
“And” between values parts separate entries of the source, which are not always exact repeats. Identical values can stand only once.

Legend:
[1] = molecular target: T1, BCL-xL/PROTAC/VHL-ELOC-ELOB (VCB) ternary complex (Homo sapiens, UniProt P40337+Q07817); experiment: AlphaLISA ternary complex formation, cell-free, BCL-xL; assay type: binding; details: for AlphaLISA signal, BCL-xL/PROTAC/VCB: Fig. 3e raw Alpha reads
T1 construct: pGEX-6P-1-VHL(54-213) (pDL2200) was constructed through Gibson assembly method; made in house; host or cells: bacterial culture (LB broth, IPTG induction)
Method in brief: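 Cell-free AlphaLISA: 5 nM His-tagged BCL-xL or BCL-2 plus 5 nM GST-VCB incubated with fourfold serially diluted compound 30 min at room temperature. Glutathione donor and His acceptor beads (20 µg/ml each) then added for 15 and 45 min; AlphaLISA signal plotted against compound concentration.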

[2] = system: BCL-xL/PROTAC/VCB ternary complex (HiBit-BCL-xL, HaloTag-VHL); experiment: NanoBRET intracellular ternary complex formation in 293T cells, BCL-xL; assay type: cell-based, human; details: for nanoBRET ratio (610/450, background-subtracted), Ave, Bcl-xl: Ave of Read2 and Read3; for nanoBRET ratio (610/450, background-subtracted), Ave, Bcl-xl / nanoBRET ratio (610/450, background-subtracted), Read2, Bcl-xl / nanoBRET ratio (610/450, background-subtracted), Read3, Bcl-xl: triplicate wells
Method in brief: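 293T cells were transfected with HiBit-BCL-xL or HiBit-BCL-2 plus HaloTag-VHL and incubated overnight with or without HaloTag NanoBRET 618 ligand in 4% FBS Opti-MEM. Serially diluted compounds were applied for 6 h at 37 °C. mBRET ratio from donor emission (450/50 nm) and acceptor emission (610 nm longpass) after Nano-Glo substrate.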

[3] = compound 50000 nM, 2 technical replicates

T1 sequence (Q07817 1-212 limits assumed): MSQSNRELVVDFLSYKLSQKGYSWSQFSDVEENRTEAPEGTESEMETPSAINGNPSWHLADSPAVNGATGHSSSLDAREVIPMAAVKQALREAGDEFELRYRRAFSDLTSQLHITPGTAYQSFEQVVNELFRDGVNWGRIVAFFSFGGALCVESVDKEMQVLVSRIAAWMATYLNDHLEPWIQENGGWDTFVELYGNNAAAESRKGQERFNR
T1 sequence (P40337 54-213 limits assumed): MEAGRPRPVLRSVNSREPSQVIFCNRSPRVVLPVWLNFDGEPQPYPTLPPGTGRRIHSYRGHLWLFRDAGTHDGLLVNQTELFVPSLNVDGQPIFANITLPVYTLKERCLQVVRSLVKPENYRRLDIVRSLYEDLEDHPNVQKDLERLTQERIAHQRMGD
T1 sequence (Q15369 17-112 partner limits assumed): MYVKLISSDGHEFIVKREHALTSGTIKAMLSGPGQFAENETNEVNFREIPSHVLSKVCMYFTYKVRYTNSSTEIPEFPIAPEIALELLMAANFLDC
T1 sequence (Q15370 whole entry partner): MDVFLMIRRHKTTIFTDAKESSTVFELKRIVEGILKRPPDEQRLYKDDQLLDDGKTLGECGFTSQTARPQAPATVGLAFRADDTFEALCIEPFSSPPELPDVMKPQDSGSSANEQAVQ

SMILES	AlphaLISA signal, BCL-xL/PROTAC/VCB ([1]; compound 0.19 nM)	AlphaLISA signal, BCL-xL/PROTAC/VCB ([1]; compound 3.05 nM)	AlphaLISA signal, BCL-xL/PROTAC/VCB ([1]; compound 12.21 nM)	AlphaLISA signal, BCL-xL/PROTAC/VCB ([1]; compound 48.83 nM)	AlphaLISA signal, BCL-xL/PROTAC/VCB ([1]; compound 195.31 nM)	AlphaLISA signal, BCL-xL/PROTAC/VCB ([1]; compound 781.25 nM)	AlphaLISA signal, BCL-xL/PROTAC/VCB ([1]; compound 3125 nM)	AlphaLISA signal, BCL-xL/PROTAC/VCB ([1]; compound 12500 nM)	AlphaLISA signal, BCL-xL/PROTAC/VCB [1, 3]	nanoBRET ratio (610/450, background-subtracted), Ave, Bcl-xl ([2]; 0.004 uM)	nanoBRET ratio (610/450, background-subtracted), Read2, Bcl-xl ([2]; 0.004 uM)	nanoBRET ratio (610/450, background-subtracted), Read3, Bcl-xl ([2]; 0.004 uM)	nanoBRET ratio (610/450, background-subtracted), Ave, Bcl-xl ([2]; 0.012 uM)	nanoBRET ratio (610/450, background-subtracted), Read2, Bcl-xl ([2]; 0.012 uM)	nanoBRET ratio (610/450, background-subtracted), Read3, Bcl-xl ([2]; 0.012 uM)	nanoBRET ratio (610/450, background-subtracted), Ave, Bcl-xl ([2]; 0.111 uM)	nanoBRET ratio (610/450, background-subtracted), Read2, Bcl-xl ([2]; 0.111 uM)	nanoBRET ratio (610/450, background-subtracted), Read3, Bcl-xl ([2]; 0.111 uM)	nanoBRET ratio (610/450, background-subtracted), Ave, Bcl-xl ([2]; 0.333 uM)	nanoBRET ratio (610/450, background-subtracted), Read2, Bcl-xl ([2]; 0.333 uM)	also measured
Cc1ncsc1-c1ccc([C@H](C)NC(=O)[C@@H]2C[C@@H](O)CN2C(=O)[C@@H](NC(=O)CCCCCCC(=O)N2CCN(C[C@]3(C)CCC(c4ccc(Cl)cc4)=C(CN4CCN(c5ccc(C(=O)NS(=O)(=O)c6ccc(N[C@H](CCN7CCOCC7)CSc7ccccc7)c(S(=O)(=O)C(F)(F)F)c6)cc5)CC4)C3)CC2)C(C)(C)C)cc1 [753b]	52786 and 55133	554325 and 621989	1164205 and 1155712	1828094 and 1838568	1687174 and 1602581	724516 and 720957	238805 and 237649	37696 and 47526	26805 and 26614	6.669 and 7.034 and 7.222	6.7548 and 7.529 and 7.533	6.584 and 6.539 and 6.911	7.369 and 7.678 and 8.359	7.541 and 7.384 and 8.298	7.198 and 7.973 and 8.421	9.509 and 8.705 and 10.1696	10.2238 and 9.035 and 9.873	8.794 and 8.375 and 10.4663	10.2723 and 9.168 and 8.741	10.5785 and 8.953 and 8.643	in vitro ternary complex formation with BCL-xL (in words) ([1]; AlphaLISA, cell-free, Fig. 2c, 3e): stronger ternary complexes with BCL-xL/2 than those by 753a and DT2216; AlphaLISA signal, BCL-xL/PROTAC/VCB ([1]; compound 0.76 nM): 140034 and 175918; nanoBRET ratio (610/450, background-subtracted), Read3, Bcl-xl ([2]; 0.333 uM): 9.9661 and 9.383 and 8.84; nanoBRET ratio (610/450, background-subtracted), Ave, Bcl-xl ([2]; 1 uM): 8.944 and 10.7233 and 9.842; nanoBRET ratio (610/450, background-subtracted), Read2, Bcl-xl ([2]; 1 uM): 9.3741 and 12.2305 and 10.3071; nanoBRET ratio (610/450, background-subtracted), Read3, Bcl-xl ([2]; 1 uM): 8.514 and 9.216 and 9.3776; nanoBRET ratio (610/450, background-subtracted), Ave, Bcl-xl ([2]; 3 uM): 8.924 and 8.687 and 9.846; nanoBRET ratio (610/450, background-subtracted), Read2, Bcl-xl ([2]; 3 uM): 9.65 and 9.358 and 10.5304; nanoBRET ratio (610/450, background-subtracted), Read3, Bcl-xl ([2]; 3 uM): 8.197 and 8.015 and 9.162; intracellular ternary complex formation with BCL-xL (in words) ([2]; NanoBRET, 293T cells, 6 h): much higher activity to induce the ternary complex formation with both BCL-xL and BCL-2 relative to 753a
Cc1ncsc1-c1ccc([C@H](C)NC(=O)[C@@H]2C[C@@H](O)CN2C(=O)[C@@H](NC(=O)CCCCCCC(=O)N2CCN(C[C@@]3(C)CCC(c4ccc(Cl)cc4)=C(CN4CCN(c5ccc(C(=O)NS(=O)(=O)c6ccc(N[C@H](CCN7CCOCC7)CSc7ccccc7)c(S(=O)(=O)C(F)(F)F)c6)cc5)CC4)C3)CC2)C(C)(C)C)cc1 [753a]	27453 and 33756	365306 and 327240	971358 and 937064	1567841 and 1437893	1256006 and 1243530	553159 and 551116	187859 and 162857	42241 and 44787	28218 and 24731	6.588 and 5.267 and 6.114	6.808 and 5.756 and 5.973	6.368 and 4.777 and 6.254	7.772 and 5.901 and 5.719	8.034 and 6.13 and 5.719	7.511 and 5.673 and 5.719	7.6 and 7.528 and 6.707	8.597 and 7.785 and 7.564	6.603 and 7.27 and 5.849	7.771 and 7.613 and 7.591	8.649 and 8.045 and 7.293	nanoBRET ratio (610/450, background-subtracted), Read3, Bcl-xl ([2]; 0.333 uM): 6.893 and 7.18 and 7.888; nanoBRET ratio (610/450, background-subtracted), Ave, Bcl-xl ([2]; 1 uM): 6.777 and 6.861 and 6.637; nanoBRET ratio (610/450, background-subtracted), Read2, Bcl-xl ([2]; 1 uM): 6.613 and 6.856 and 7.09; nanoBRET ratio (610/450, background-subtracted), Read3, Bcl-xl ([2]; 1 uM): 6.94 and 6.866 and 6.184; nanoBRET ratio (610/450, background-subtracted), Ave, Bcl-xl ([2]; 3 uM): 7.07 and 7.184 and 6.888; nanoBRET ratio (610/450, background-subtracted), Read2, Bcl-xl ([2]; 3 uM): 7.24 and 8.026 and 7.182; nanoBRET ratio (610/450, background-subtracted), Read3, Bcl-xl ([2]; 3 uM): 6.9 and 6.341 and 6.5933
